Holding throughout (assay): Assay B: in vitro antibacterial activity, broth microdilution MIC (NCCLS)
Type in all cases: cell-based
For orientation: Broth dilution looks for growth in wells or tubes with falling amounts of substance.

In assay [1] the test system is Streptococcus pneumoniae ATCC 6303. The conditions noted are these: Table 2, Assay B, Mueller Hinton broth with 3% lysed horse blood, 20 to 24 hr; code F = Streptococcus pneumoniae ATCC 6303; unit assumed. In short, it runs like this: (§1)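 MIC is the lowest concentration with no visible growth after serial two-fold dilution in cation-adjusted Mueller Hinton broth, approximately 5×10^5 CFU/mL inoculum, 16-20 h at 35 °C in air (NCCLS). Broth for H. influenzae gets 5 g/L yeast extract, 0.3 mmol/L hematin and 15 mg/L NAD, for S. pneumoniae 3% lysed horse blood; both incubated 20-24 h.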

Assay [2] has as its system Escherichia coli JUHL. The conditions noted are these: Table 2, Assay B, cation-adjusted Mueller Hinton broth, 35° C., 16 to 20 hr; code D = Escherichia coli JUHL; unit assumed. The method, boiled down: as §1
In assay [3] the test system is Staphylococcus aureus ATCC 6538P. The conditions noted are these: Table 2, Assay B, cation-adjusted Mueller Hinton broth, 35° C., 16 to 20 hr; code A = Staphylococcus aureus ATCC 6538P; unit assumed. The method, boiled down:
as §1

The test system of assay [4] is Haemophilus influenzae DILL AMP R. The conditions noted are these: Table 2, Assay B, Mueller Hinton broth with yeast extract, hematin and NAD, 20 to 24 hr; code E = Haemophilus influenzae DILL AMP R; unit assumed. In short, it runs like this:
as §1

Assay [5] concerns Enterococcus faecalis PIU 1967. The conditions noted are these: Table 2, Assay B, cation-adjusted Mueller Hinton broth, 35° C., 16 to 20 hr; code B = Enterococcus faecalis PIU 1967; unit assumed. In short, it runs like this: as §1

In turn, `COc1c(-c2cc3c(s2)CCCC3CN2CCOCC2)ccc2c(=O)c(C(=O)O)cn(C3CC3)c12` (stereo not drawn) [Example 126, 1-cyclopropyl-8-methoxy-7-(4-(4-morpholinylmethyl)-4,5,6,7-tetrahydro-1-benzothien-2-yl)-4-oxo-1,4-dihydro-3-quinolinecarboxylic acid] yielded an Antibacterial Activity (MIC's), F in assay [1] of 0.5 µg/mL. In assay [2], this compound registered an Antibacterial Activity (MIC's), D of 16 µg/mL. In assay [3], this compound returned an Antibacterial Activity (MIC's), A of 0.004 µg/mL. For the same compound, the Antibacterial Activity (MIC's), E in assay [4] worked out at 1 µg/mL. The compound also came in with an Antibacterial Activity (MIC's), B in assay [5] of 0.5 µg/mL.
In assay [1], `COc1c(-c2cc3c(s2)CCCC3CN(C)C)ccc2c(=O)c(C(=O)O)cn(C3CC3)c12` (stereo not drawn) [Example 127, 1-cyclopropyl-7-(4-((dimethylamino)methyl)-4,5,6,7-tetrahydro-1-benzothien-2-yl)-8-methoxy-4-oxo-1,4-dihydro-3-quinolinecarboxylic acid] registered an Antibacterial Activity (MIC's), F of 0.5 µg/mL. For the same compound, in assay [2], the Antibacterial Activity (MIC's), D was 1 µg/mL. In addition, the Antibacterial Activity (MIC's), A in assay [3] stood at 0.5 µg/mL. Besides, the Antibacterial Activity (MIC's), E in assay [4] is 0.125 µg/mL. This compound gave an Antibacterial Activity (MIC's), B in assay [5] of 0.25 µg/mL.
As to `COc1c(-c2cc3c(s2)CCCC3NC2CCN(C)CC2)ccc2c(=O)c(C(=O)O)cn(C3CC3)c12.Cl.Cl` (stereo not drawn) [Example 133, 1-cyclopropyl-8-methoxy-7-(4-((1-methyl-4-piperidinyl)amino)-4,5,6,7-tetrahydro-1-benzothien-2-yl)-4-oxo-1,4-dihydro-3-quinolinecarboxylic acid dihydrochloride], in assay [1], the Antibacterial Activity (MIC's), F was 1 µg/mL. Besides, the Antibacterial Activity (MIC's), D in assay [2] turned out to be 1 µg/mL. Further, in assay [3], the Antibacterial Activity (MIC's), A is 0.5 µg/mL. Besides, the Antibacterial Activity (MIC's), E in assay [4] is 1 µg/mL. For the same compound, the Antibacterial Activity (MIC's), B in assay [5] turned out to be 1 µg/mL.
Compound `COc1c(-c2cc3c(s2)S(=O)(=O)CCC3O)ccc2c(=O)c(C(=O)O)cn(C3CC3)c12` (stereo not drawn) [Example 135, 1-cyclopropyl-7-(4-hydroxy-7,7-dioxido-5,6-dihydro-4H-thieno[2,3-b]thiopyran-2-yl)-8-methoxy-4-oxo-1,4-dihydro-3-quinolinecarboxylic acid] came in with an Antibacterial Activity (MIC's), F in assay [1] of 4 µg/mL. For the same compound, in assay [2], the Antibacterial Activity (MIC's), D stood at 16 µg/mL. Also, the Antibacterial Activity (MIC's), A in assay [3] was 1 µg/mL. The compound also came in with an Antibacterial Activity (MIC's), E in assay [4] of 1 µg/mL. Besides, in assay [5], the Antibacterial Activity (MIC's), B was 1 µg/mL.
`COc1c(-c2cc3c(s2)S(=O)(=O)CCC3N)ccc2c(=O)c(C(=O)O)cn(C3CC3)c12.Cl` (stereo not drawn) [Example 143, 7-(4-amino-7,7-dioxido-5,6-dihydro-4H-thieno[2,3-b]thiopyran-2-yl)-1-cyclopropyl-8-methoxy-4-oxo-1,4-dihydro-3-quinolinecarboxylic acid hydrochloride]: the Antibacterial Activity (MIC's), F in assay [1] is 0.5 µg/mL. In assay [2], this compound registered an Antibacterial Activity (MIC's), D of 64 µg/mL. The Antibacterial Activity (MIC's), A in assay [3] was 0.125 µg/mL. The same compound registered an Antibacterial Activity (MIC's), E in assay [4] of 0.125 µg/mL. Further, the Antibacterial Activity (MIC's), B in assay [5] came to 0.5 µg/mL.
In turn, `COc1c(-c2cc3c(s2)CCCC3NCCO)ccc2c(=O)c(C(=O)O)cn(C3CC3)c12.Cl` (stereo not drawn) [Example 155, 1-cyclopropyl-7-(4-((2-hydroxyethyl)amino)-4,5,6,7-tetrahydro-1-benzothien-2-yl)-8-methoxy-4-oxo-1,4-dihydro-3-ouinolinecarboxylic acid hydrochloride] returned an Antibacterial Activity (MIC's), F in assay [1] of 0.03 µg/mL. Further, the Antibacterial Activity (MIC's), D in assay [2] is 0.5 µg/mL. Also, the Antibacterial Activity (MIC's), A in assay [3] came out at 0.03 µg/mL. For the same compound, in assay [4], the Antibacterial Activity (MIC's), E was determined as 0.06 µg/mL. The Antibacterial Activity (MIC's), B in assay [5] is 0.125 µg/mL.
As to `Cl.NC1CCCc2sc(-c3nc4c(cc3F)c(=O)c(C(=O)O)cn4C3CC3)cc21` (stereo not drawn) [Example 156, 7-(4-amino-4,5,6,7-tetrahydro-1-benzothien-2-yl)-1-cyclopropyl-6-fluoro-4-oxo-1,4-dihydro[1,8]naphthyridine-3-carboxylic acid hydrochloride], the Antibacterial Activity (MIC's), F in assay [1] is 0.06 µg/mL. Also, in assay [2], the Antibacterial Activity (MIC's), D is 0.03 µg/mL. Also, the Antibacterial Activity (MIC's), A in assay [3] worked out at 0.03 µg/mL. This compound also returned an Antibacterial Activity (MIC's), E in assay [4] of 0.015 µg/mL. This compound showed an Antibacterial Activity (MIC's), B in assay [5] of 0.125 µg/mL.
For `COc1c(-c2cc3c(s2)CCC/C3=N\OCc2cccnc2)ccc2c(=O)c(C(=O)O)cn(C3CC3)c12` [Example 182, 1-cyclopropyl-8-methoxy-4-oxo-7-((4E)-4-((3-pyridinylmethoxy)imino)-4,5,6,7-tetrahydro-1-benzothien-2-yl)-1,4-dihydro-3-quinolinecarboxylic acid], the Antibacterial Activity (MIC's), F in assay [1] is 0.25 µg/mL. Also, the Antibacterial Activity (MIC's), D in assay [2] was found to be 1 µg/mL. Besides, the Antibacterial Activity (MIC's), A in assay [3] turned out to be 0.03 µg/mL. The same compound yielded an Antibacterial Activity (MIC's), E in assay [4] of 0.125 µg/mL. In assay [5], the Antibacterial Activity (MIC's), B was found to be 0.25 µg/mL.
On to `COc1c(-c2cc3c(s2)CCC(C)C3O)ccc2c(=O)c(C(=O)O)cn(C3CC3)c12` (stereo not drawn) [Example 185, 1-cyclopropyl-7-(4-hydroxy-5-methyl-4,5,6,7-tetrahydro-1-benzothien-2-yl)-8-methoxy-4-oxo-1,4-dihydro-3-quinolinecarboxylic acid], for which the Antibacterial Activity (MIC's), F in assay [1] turned out to be 0.5 µg/mL. In addition, in assay [2], the Antibacterial Activity (MIC's), D was 0.5 µg/mL. Moreover, the Antibacterial Activity (MIC's), A in assay [3] was determined as 0.015 µg/mL. Besides, in assay [4], the Antibacterial Activity (MIC's), E turned out to be 0.125 µg/mL. The same compound had an Antibacterial Activity (MIC's), B in assay [5] of 0.25 µg/mL.
The compound `COc1c(-c2cc3c(s2)CCCC3N2CC(O)C2)ccc2c(=O)c(C(=O)O)cn(C3CC3)c12.Cl` (stereo not drawn) [Example 198, 1-cyclopropyl-7-(4-(3-hydroxy-1-azetidinyl)-4,5,6,7-tetrahydro-1-benzothien-2-yl)-8-methoxy-4-oxo-1,4-dihydro-3-guinolinecarboxvlic acid hydrochloride] had an Antibacterial Activity (MIC's), F in assay [1] of 0.125 µg/mL. Further, in assay [2], the Antibacterial Activity (MIC's), D came to 0.5 µg/mL. Besides, the Antibacterial Activity (MIC's), A in assay [3] is 0.25 µg/mL. In assay [4], this compound showed an Antibacterial Activity (MIC's), E of 0.25 µg/mL. Moreover, in assay [5], the Antibacterial Activity (MIC's), B stood at 0.25 µg/mL.
For `COc1c(-c2cc3c(s2)CCC(C)C3N)ccc2c(=O)c(C(=O)O)cn(C3CC3)c12.Cl` (stereo not drawn) [Example 199, 7-(4-amino-5-methyl-4,5,6,7-tetrahydro-1-benzothien-2-yl)-1-cyclopropyl-8-methoxy-4-oxo-1,4-dihydro-3-quinolinecarboxylic acid hydrochloride], in assay [1], the Antibacterial Activity (MIC's), F was 0.06 µg/mL. Besides, the Antibacterial Activity (MIC's), D in assay [2] turned out to be 0.25 µg/mL. The compound further registered an Antibacterial Activity (MIC's), A in assay [3] of 0.03 µg/mL. Besides, in assay [4], the Antibacterial Activity (MIC's), E turned out to be 0.125 µg/mL. For the same compound, the Antibacterial Activity (MIC's), B in assay [5] was found to be 0.125 µg/mL.
For the compound `Cl.NC1CCCc2sc(-c3ccc4c(=O)c(C(=O)O)cn(C5CC5)c4n3)cc21` (stereo not drawn) [Example 200, 7-(4-amino-4,5,6,7-tetrahydro-1-benzothien-2-yl)-1-cyclopropyl-4-oxo-1,4-dihydro[1,8]naphthyridine-3-carboxylic acid hydrochloride], in assay [1], the Antibacterial Activity (MIC's), F was found to be 0.125 µg/mL. In assay [2], the Antibacterial Activity (MIC's), D was 0.06 µg/mL. Moreover, the Antibacterial Activity (MIC's), A in assay [3] is 0.03 µg/mL. The Antibacterial Activity (MIC's), E in assay [4] is 0.03 µg/mL. The compound further showed an Antibacterial Activity (MIC's), B in assay [5] of 0.125 µg/mL.
